Assay results from ChEMBL document CHEMBL1287762, “Synthesis and biological evaluation of 3-[4-(amino/methylsulfonyl)phenyl]methylene-indolin-2-one derivatives as novel COX-1/2 and 5-LOX inhibitors” (Bioorg Med Chem Lett, 2010).
Where a name gives a salt, the structure may show the parent alone.

Assays:
[1] = target: T1, Prostaglandin G/H synthase 2 (Oryctolagus cuniculus, UniProt O02768); assay: Inhibition of COX-2 in rabbit peripheral venous blood assessed as formation of 12-hydroxyheptadecatrienoic acid after 24 hrs in by HPLC presence of calcium ionophore […] and lipopolysaccharide; format: tissue-based
T1 sequence (O02768 whole entry): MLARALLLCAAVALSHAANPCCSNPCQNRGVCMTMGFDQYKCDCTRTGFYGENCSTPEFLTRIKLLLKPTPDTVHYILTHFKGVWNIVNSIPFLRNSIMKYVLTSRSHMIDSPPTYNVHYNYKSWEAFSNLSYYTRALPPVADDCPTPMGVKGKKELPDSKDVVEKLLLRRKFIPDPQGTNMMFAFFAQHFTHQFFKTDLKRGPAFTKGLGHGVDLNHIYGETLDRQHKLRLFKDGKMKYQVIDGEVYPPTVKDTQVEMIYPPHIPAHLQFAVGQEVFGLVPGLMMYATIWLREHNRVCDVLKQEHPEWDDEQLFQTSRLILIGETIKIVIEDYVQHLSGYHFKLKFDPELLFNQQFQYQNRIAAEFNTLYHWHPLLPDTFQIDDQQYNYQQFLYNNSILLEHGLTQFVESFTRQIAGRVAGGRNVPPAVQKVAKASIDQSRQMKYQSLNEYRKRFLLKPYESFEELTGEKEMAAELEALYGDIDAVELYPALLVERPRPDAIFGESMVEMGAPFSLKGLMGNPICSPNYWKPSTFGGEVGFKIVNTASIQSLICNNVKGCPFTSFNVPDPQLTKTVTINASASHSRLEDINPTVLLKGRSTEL

[2] = target: T2, Prostaglandin G/H synthase 1 (Oryctolagus cuniculus, UniProt O97554); assay: Inhibition of COX-1 in rabbit peripheral venous blood assessed as formation of 12-hydroxyheptadecatrienoic acid after 24 hrs by HPLC in presence of calcium ionophore A23187
T2 sequence (O97554 whole entry): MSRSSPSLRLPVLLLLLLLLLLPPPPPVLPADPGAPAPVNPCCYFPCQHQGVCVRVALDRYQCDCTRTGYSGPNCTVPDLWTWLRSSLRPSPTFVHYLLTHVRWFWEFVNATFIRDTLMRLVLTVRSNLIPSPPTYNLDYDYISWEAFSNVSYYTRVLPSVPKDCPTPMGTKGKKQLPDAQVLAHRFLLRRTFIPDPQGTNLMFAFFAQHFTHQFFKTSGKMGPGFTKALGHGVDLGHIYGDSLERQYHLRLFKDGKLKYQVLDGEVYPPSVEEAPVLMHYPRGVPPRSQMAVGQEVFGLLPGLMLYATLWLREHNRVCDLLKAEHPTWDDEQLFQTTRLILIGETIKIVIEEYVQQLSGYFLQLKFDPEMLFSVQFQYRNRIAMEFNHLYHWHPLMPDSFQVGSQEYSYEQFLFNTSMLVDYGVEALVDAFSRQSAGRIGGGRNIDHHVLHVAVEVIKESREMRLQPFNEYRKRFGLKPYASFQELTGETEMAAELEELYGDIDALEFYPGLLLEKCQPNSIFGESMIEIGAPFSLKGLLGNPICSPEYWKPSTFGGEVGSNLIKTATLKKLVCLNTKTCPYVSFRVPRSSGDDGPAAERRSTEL

[3] = Inhibition of 5-LOX in rabbit peripheral venous blood assessed as formation of […] after 30 mins by HPLC; format: tissue-based, Oryctolagus cuniculus
[4] = tested on: Rattus norvegicus; assay: Antiinflammatory activity in Wistar rat assessed as inhibition of carrageenan-induced paw edema at 10.38 mg/kg, po administered 1 hr before carrageenan challenge measured at 1 hr by plethysmometer; format: functional
[5] = tested on: Rattus norvegicus; assay: Antiinflammatory activity in Wistar rat assessed as inhibition of carrageenan-induced paw edema at 10.38 mg/kg, po administered 1 hr before carrageenan challenge measured at 6 hrs by plethysmometer; format: functional
[6] = tested on: Rattus norvegicus; assay: Antiinflammatory activity in Wistar rat assessed as inhibition of carrageenan-induced paw edema at 10.38 mg/kg, po administered 1 hr before carrageenan challenge measured at 3 hrs by plethysmometer; format: functional
[7] = tested on: Rattus norvegicus; assay: Ulcerogenic effect in Wistar rat assessed as gastric ulcer area at 10.38 mg/kg, po administered for 7 days by microscopy; format: toxicity, organism-based, Stomach; parameters: dose 10.38 mg/kg, route oral; conditions: in vivo, 168 h
[8] = tested on: Mus musculus; assay: Analgesic activity in BALB/c mouse assessed as inhibition of acetic acid-induced writhing response for 15 mins at 20.76 mg/kg, po; format: functional; conditions: 0.25 h
[9] = organism: Oryctolagus cuniculus; assay: Selectivity ratio, IC50 for COX-1in rabbit peripheral venous blood to IC50 for COX-2 in rabbit peripheral venous blood; format: tissue-based
[10] = tested on: Rattus norvegicus; assay: Antiinflammatory activity in Wistar rat assessed as inhibition of carrageenan-induced paw edema at 10.12 mg/kg, po administered 1 hr before carrageenan challenge measured at 1 hr by plethysmometer; format: functional
[11] = tested on: Rattus norvegicus; assay: Antiinflammatory activity in Wistar rat assessed as inhibition of carrageenan-induced paw edema at 10.12 mg/kg, po administered 1 hr before carrageenan challenge measured at 6 hrs by plethysmometer; format: functional
[12] = tested on: Rattus norvegicus; assay: Antiinflammatory activity in Wistar rat assessed as inhibition of carrageenan-induced paw edema at 10.12 mg/kg, po administered 1 hr before carrageenan challenge measured at 3 hrs by plethysmometer; format: functional
[13] = tested on: Mus musculus; assay: Analgesic activity in BALB/c mouse assessed as inhibition of acetic acid-induced writhing response for 15 mins at 20.24 mg/kg, po; format: functional; conditions: 0.25 h
[14] = tested on: Rattus norvegicus; assay: Ulcerogenic effect in Wistar rat assessed as gastric ulcer area at 10.12 mg/kg, po administered for 7 days by microscopy; format: toxicity, organism-based, Stomach; parameters: dose 10.12 mg/kg, route oral; conditions: in vivo, 168 h
[15] = tested on: Rattus norvegicus; assay: Ulcerogenic effect in Wistar rat assessed as gastric ulcer area at 9.65 mg/kg, po administered for 7 days by microscopy; format: toxicity, organism-based, Stomach; parameters: dose 9.65 mg/kg, route oral; conditions: in vivo, 168 h
[16] = tested on: Rattus norvegicus; assay: Antiinflammatory activity in Wistar rat assessed as inhibition of carrageenan-induced paw edema at 9.65 mg/kg, po administered 1 hr before carrageenan challenge measured at 3 hrs by plethysmometer; format: functional
[17] = tested on: Mus musculus; assay: Analgesic activity in BALB/c mouse assessed as inhibition of acetic acid-induced writhing response for 15 mins at 19.30 mg/kg, po; format: functional; conditions: 0.25 h
[18] = tested on: Rattus norvegicus; assay: Antiinflammatory activity in Wistar rat assessed as inhibition of carrageenan-induced paw edema at 9.65 mg/kg, po administered 1 hr before carrageenan challenge measured at 6 hrs by plethysmometer; format: functional
[19] = tested on: Rattus norvegicus; assay: Antiinflammatory activity in Wistar rat assessed as inhibition of carrageenan-induced paw edema at 9.65 mg/kg, po administered 1 hr before carrageenan challenge measured at 1 hr by plethysmometer; format: functional

IC50 [1] | IC50 [2] | IC50 [3] | SMILES | further results
> 50 µM | > 50 µM | > 50 µM | NS(=O)(=O)c1ccc(/C=C2/C(=O)Nc3cc(Cl)ccc32)cc1 | –
– | 2.56 µM | 36.7 µM | NC(=O)N1C(=O)/C(=C(\O)c2cccs2)c2cc(Cl)ccc21 [TENIDAP] | inhibition in vivo at 10.38 mg/kg [4]: 23.8%; inhibition in vivo at 10.38 mg/kg [5]: 19.6%; inhibition in vivo at 10.38 mg/kg [6]: 38.9%; Activity [7]: 3.75 mm2; inhibition in vivo at 20.76 mg/kg [8]: 70.4%
0.11 µM | 37.6 µM | – | CC(C)(C)c1cc(/C=C2\SC(N)=NC2=O)cc(C(C)(C)C)c1O [DARBUFELONE MESYLATE] | –
> 50 µM | > 50 µM | > 50 µM | Cc1ccc2c(c1)/C(=C\c1ccc(S(C)(=O)=O)cc1)C(=O)N2 | –
2.39 µM | 0.24 µM | 2.99 µM | CS(=O)(=O)c1ccc(/C=C2/C(=O)Nc3cc(Cl)ccc32)cc1 | Ratio IC50 [9]: 0.1; inhibition in vivo at 10.12 mg/kg [10]: 19.4%; inhibition in vivo at 10.12 mg/kg [11]: 21.6%; inhibition in vivo at 10.12 mg/kg [12]: 23.8%; inhibition in vivo at 20.24 mg/kg [13]: 55.2%; Activity [14]: 0.75 mm2
> 50 µM | > 50 µM | > 50 µM | NS(=O)(=O)c1ccc(/C=C2/C(=O)Nc3ccccc32)cc1 | –
0.18 µM | 0.62 µM | 9.87 µM | NS(=O)(=O)c1ccc(/C=C2/C(=O)Nc3ccc(F)cc32)cc1 | Ratio IC50 [9]: 3.44; Activity [15]: 0.45 mm2; inhibition in vivo at 9.65 mg/kg [16]: 44.4%; inhibition in vivo at 19.3 mg/kg [17]: 54%; inhibition in vivo at 9.65 mg/kg [18]: 27.4%; inhibition in vivo at 9.65 mg/kg [19]: 33.3%
